Like-named read-outs stand apart in the source and are kept apart here. Marks after values point to notes of the source that are not given here.
How the values were obtained:
Type in all cases: cell-based
TNF-α = assay: Whole bovine blood assay, LPS-induced TNF-α; settings: fresh whole bovine blood, LPS stimulant, top drug concentration 250 μM
Outline: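 Fresh heparinized bovine whole blood was preincubated with compound 4 h at 37 °C, then stimulated with LPS (final 1 μg/mL) for 18 h at 37 °C. Plasma TNF-α was quantified by MSD U-Plex chemiluminescent immunoassay, normalized to total protein (BCA), and IC50 taken for LPS-induced TNF-α inhibition.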

[1] = tested on: BRD pathogens, M. haemolytica and P. multocida; assay: MIC screening panel, BRD pathogens (CLSI broth micro-dilution)
Text: Primary screening of the compounds of the invention included the evaluation of antibacterial activity of analogs through determination of microbial inhibition concentration (MIC) as per CLSI guidelines. The screening panel included the relevant BRD pathogens: 1) M. haemolytica (e.g., 12726, 46571 and 49023, all AHDRCC; and 33396 (ATCC)); and 2) P. multocida (e.g., 34135 and 46572 (both AHDRCC) and 43137 (ATCC)). In some instances, H. somni (A700025K) pathogens were also included in the screening panel. The AHDRCC strains originated from the Zoetis BRD/SRD surveillance program and refer to the Animal Health Development and Research Culture Collection. In addition, the screen assessed S. aureus (29213 ATCC) as a representative Gram-positive isolate, E.faecalis (19433 ATCC) as a commensal gram-positive gastrointestinal bacterium and E. coli (100, 3110 and 25922 (ATCC)) for the evaluation of efflux potential. The screening panel BRD pathogens were assessed in determining antibacterial activity of the Formula (1) compounds.
All relevant BRD pathogens were initially screened at a top concentration of 64 μg/mL of a Formula (1) compound in an eleven-point dilution series. […] If an Example was purified further, the MICs moved […] essentially two dilutions across all strains tested in the screening panel.
In-Vitro MIC Model Compounds were analyzed for antibacterial activity against a panel of animal health specific gram-positive and gram-negative clinical strains by diluting compounds in DMSO to an appropriate stock concentration to determine the Minimal Inhibitory Concentration (MIC) via a semi-automated broth micro-dilution method (CLSI reference method) with QC strains and anti-microbial agent(s). Specifically, bacteria were grown overnight on TSA w/5% sheep blood agar plates and diluted in saline buffer to a McFarland Standard 0.5, then further diluted in cation-ion adjusted Mueller Hinton Broth to a final concentration of approximately 5×10^5 CFU/mL. 100 μL of inoculated media was added to 96-well plate(s) with 3 μL of serially diluted compound in each row. Depending on strain (see CLSI reference method), bacteria were incubated 18-22 hours at 35-37° C. in ambient air, with 5% CO2 or anaerobically (up to 48 hours).

IL-6 = assay: Whole bovine blood assay, LPS-induced IL-6; settings: fresh whole bovine blood, LPS stimulant, top drug concentration 250 μM
[2] = Table B, at least one BRD pathogenic strain, top concentration 64 μg/mL
[3] = Table B, at least one BRD pathogenic strain, top concentration 64 μg/mL, read-out: MIC flag (*) for BRD pathogenic strains
[4] = Table C, at least one BRD pathogenic strain, top concentration 64 μg/mL
[5] = BRD pathogens M. haemolytica and P. multocida, read-out: antibacterial / non-antibacterial (MIC class)

Compound | IC50 (TNF-α) [µM] | MIC flag (*) for BRD pathogenic strains [1, 2] | MIC [1, 3] [µg/mL] | also measured
N-((2S,3R,4S,6R)-2-(((2R,3S,4R,5R,8R,10R,11R,12S,13S,14R)-2-ethyl-3,4,10-trihydroxy-13-(((2R,4R,5S,6S)-5-hydroxy-4-methoxy-4,6-dimethyl-5-((propylamino)methyl)tetrahydro-2H-pyran-2-yl)oxy)-3,5,6,8,10,12,14-heptamethyl-15-oxo-1-oxa-6-azacyclopentadecan-11-yl)oxy)-3-(4-fluorophenoxy)-6-methyltetrahydro-2H-pyran-4-yl)-N, 1-dimethyl-1H-imidazole-2-sulfonamide [Example B-162] | 8 | B-162* (MIC ≤64 μg/mL for at least one BRD pathogenic strain) | – | IC50 (IL-6): 9 µM
CCCNC[C@]1(O)[C@H](C)OC(O[C@H]2[C@H](C)[C@@H](O[C@@H]3O[C@H](C)C[C@H](N(C)S(=O)(=O)c4ccc(-c5cnco5)s4)[C@H]3Oc3ccc(OC)cc3)[C@](C)(O)C[C@@H](C)CN[C@H](C)[C@@H](O)[C@](C)(O)[C@@H](CC)OC(=O)[C@@H]2C)C[C@@]1(C)OC (stereo partly drawn) [Example B-120, N-[(2S,3R,4S,6R)-2-[[(2R,3S,4R,5R,8R,10R,11R,12S,13S, 14R)-2-ethyl-3,4,10-trihydroxy-13-[(4R,5S,6S)-5-hydroxy-4-methoxy-4,6-dimethyl-5-(propylaminomethyl)oxan-2-yl]oxy-3,5,8, 10, 12, 14-hexamethyl-15-oxo-1-oxa-6-azacyclopentadec-11-yl]oxy]-3-(4-methoxyphenoxy)-6-methyloxan-4-yl]-N-methyl-5-(1,3-oxazol-5-yl)thiophene-2-sulfonamide] | – | – | ≤ 64 | IC50 (IL-6; Bos taurus): 6 µM
(2R,3S,4R,5R,8R,10R,11R, 12S, 13S, 14R)-2-ethyl-3,4, 10-trihydroxy-13-[(2R,4R,5S,6S)-5-hydroxy-4-methoxy-4,6-dimethyl-5-(piperidin-1-ylmethyl) oxan-2-yl]oxy-11-[(2R,3S,4R,6S)-3-hydroxy-6-methyl-4-[methyl-[(3-methylphenyl) sulfamoyl]-amino]oxan-2-yl]oxy-3,5,8, 10, 12,14-hexamethyl-15-oxo-1-oxa-6-azacyclopentadecane [Example C-26] | 16 | – | – | MIC flag (*) for BRD pathogenic strains [1, 4]: C-26* (MIC ≤64 μg/mL for at least one BRD pathogenic strain); IC50 (IL-6): 25 µM
CCCNC[C@]1(O)[C@H](C)O[C@@H](O[C@H]2[C@H](C)[C@@H](O[C@@H]3O[C@H](C)C[C@H](N(C)S(=O)(=O)c4ccccc4)[C@H]3Oc3ccc(F)cc3)[C@](C)(O)C[C@@H](C)CN(CC)[C@H](C)[C@@H](O)[C@](C)(O)[C@@H](CC)OC(=O)[C@@H]2C)C[C@@]1(C)OC [Example B-161, N-((2S,3R,4S,6R)-2-(((2R,3S,4R,5R,8R,10R,11R,12S,13S,14R)-2,6-diethyl-3,4,10-trihydroxy-13-(((2R,4R,5S,6S)-5-hydroxy-4-methoxy-4,6-dimethyl-5-((propylamino)methyl)tetrahydro-2H-pyran-2-yl)oxy)-3,5,8,10,12,14-hexamethyl-15-oxo-1-oxa-6-azacyclopentadecan-11-yl)oxy)-3-(4-fluorophenoxy)-6-methyltetrahydro-2H-pyran-4-yl)-N-methylbenzenesulfonamide] | – | – | ≤ 64 | –
(2R,3S,4R,5R,8R,10R,11R, 12S, 13S, 14R)-11-[(2R,3S,4R,6S)-4-[[3-(dimethylamino)phenyl]sulfamoyl-methylamino]-3-hydroxy-6-methyloxan-2-yl]oxy-2-ethyl-3,4,10-trihydroxy-13-[(2R,4R,5S,6S)-5-hydroxy-4-methoxy-4,6-dimethyl-5-(piperidin-1-ylmethyl) oxan-2-yl]oxy-3,5,8,10, 12, 14-hexamethyl-15-oxo-1-oxa-6-azacyclopentadecane [Example C-25] | 37 | – | – | MIC flag (*) for BRD pathogenic strains [1, 4]: C-25* (MIC ≤64 μg/mL for at least one BRD pathogenic strain)
CCCNC[C@]1(O)[C@H](C)O[C@@H](O[C@H]2[C@H](C)[C@@H](O[C@@H]3O[C@H](C)C[C@H](N(C)S(=O)(=O)NCCc4ccccc4)[C@H]3O)[C@](C)(O)C[C@@H](C)CN[C@H](C)[C@@H](O)[C@](C)(O)[C@@H](CC)OC(=O)[C@@H]2C)C[C@@]1(C)OC [Example B-40, (2R,3S,4R,5R,8R,10R,11R,12S,13S,14R)-2-ethyl-3,4,10-trihydroxy-13-[(2R,4R,5S,6S)-5-hydroxy-4-methoxy-4,6-dimethyl-5-(propylaminomethyl)oxan-2-yl]oxy-11-[(2S,3R,4S,6R)-3-hydroxy-6-methyl-4-[methyl (2-phenylethylsulfamoyl)amino]oxan-2-yl]oxy-3,5,8,10,12,14-hexamethyl-15-oxo-1-oxa-6-azacyclopentadecane] | – | – | ≤ 64 | –
CC[C@H]1OC(=O)[C@H](C)[C@@H](O[C@H]2C[C@@](C)(OC)[C@](O)(CSc3ccccc3)[C@H](C)O2)[C@H](C)[C@@H](O[C@@H]2O[C@H](C)C[C@H](N(C)S(=O)(=O)c3ccc(Cl)cc3)[C@H]2O)[C@](C)(O)C[C@@H](C)CN[C@H](C)[C@@H](O)[C@]1(C)O [Example A3-1, 4-chloro-N-((2S,3R,4S,6R)-2-(((2R,3S,4R,5R,8R,10R,11R,12S,13S,14R)-2-ethyl-3,4, 10-trihydroxy-13-(((2R,4R,5S,6S)-5-hydroxy-4-methoxy-4,6-dimethyl-5-((phenylthio)methyl)tetrahydro-2H-pyran-2-yl)oxy)-3,5,8, 10, 12, 14-hexamethyl-15-oxo-1-oxa-6-azacyclopentadecan-11-yl)oxy)-3-hydroxy-6-methyltetrahydro-2H-pyran-4-yl)-N-methylbenzenesulfonamide] | – | – | – | IC50 (TNF-α; Bos taurus): 27 µM; MIC [1, 5]: > 64 µg/mL; IC50 (IL-6; Bos taurus): 31 µM
CC[C@H]1OC(=O)[C@H](C)[C@@H](O[C@H]2C[C@@](C)(OC)[C@](O)(CC#N)[C@H](C)O2)[C@H](C)[C@@H](O[C@@H]2O[C@H](C)C[C@H](N(C)S(=O)(=O)c3ccc(Cl)cc3)[C@H]2O)[C@](C)(O)C[C@@H](C)CN[C@H](C)[C@@H](O)[C@]1(C)O [Example A6-1, 4-chloro-N-((2S,3R,4S,6R)-2-(((2R,3S,4R,5R,8R,10R,11R,12S,13S,14R)-13-(((2R,4R,5S,6S)-5-(cyanomethyl)-5-hydroxy-4-methoxy-4,6-dimethyltetrahydro-2H-pyran-2-yl)oxy)-2-ethyl-3,4,10-trihydroxy-3,5,8,10,12,14-hexamethyl-15-oxo-1-oxa-6-azacyclopentadecan-11-yl)oxy)-3-hydroxy-6-methyltetrahydro-2H-pyran-4-yl)-N-methylbenzenesulfonamide] | – | – | – | MIC [1, 5]: > 64 µg/mL
CCCNC[C@]1(O)[C@H](C)OC(O[C@H]2[C@H](C)[C@@H](O[C@@H]3O[C@H](C)C[C@H](N(C)S(=O)(=O)c4c(C)noc4C)[C@H]3Oc3ccc(OC)cc3)[C@](C)(O)C[C@@H](C)CN[C@H](C)[C@@H](O)[C@](C)(O)[C@@H](CC)OC(=O)[C@@H]2C)C[C@@]1(C)OC (stereo partly shown) [Example B-116] | – | B-116* (MIC ≤64 μg/mL for at least one BRD pathogenic strain) | – | –
(2R,3S,4R,5R,8R,10R,11R,12S,13S,14R)-2-ethyl-3,4,10-trihydroxy-13-[(2R,4R,5S,6S)-5-hydroxy-4-methoxy-4,6-dimethyl-5-(propylaminomethyl) oxan-2-yl]oxy-11-[(2S,3R,4S,6R)-3-hydroxy-6-methyl-4-[methyl-[[4-(trifluoromethyl)phenyl]sulfamoyl]-amino]oxan-2-yl]oxy-3,5,6,8,10,12,14-heptamethyl-15-oxo-1-oxa-6-azacyclopentadecane [Example B-159] | 4 | B-159* (MIC ≤64 μg/mL for at least one BRD pathogenic strain) | – | –
